The record followed here is ChEMBL document CHEMBL1155391, “SelSA, selenium analogs of SAHA as potent histone deacetylase inhibitors” (Bioorg Med Chem Lett, 2010).

For orientation: inhibition means the percentage by which the read-out fell short of the control. Low values mean a weak effect, high ones a strong effect. The term IC50 denotes the concentration needed to halve the response being measured. Higher therefore signals lower potency.

In one test the test system is HeLa. The test can be described thus: Selectivity ratio of IC50 for drug to SAHA against human HDAC in HeLa cell nuclear extract. It counts as cell-based.
Test [1] addresses Histone deacetylase (Homo sapiens) (UniProt Q13547+O15379+Q9UBN7+Q92769+Q9UQL6+Q8WUI4+Q9BY41+Q96DB2+P56524+Q9UKV0+Q969S8). The settings on record: HeLa, at 50 nM.
Description: Inhibition of human HDAC in human HeLa cell nuclear extract at 50 nM after 15 mins by colorimetric assay
A further test addresses Histone deacetylase. The test can be described thus: Inhibition of human HDAC in human HeLa cell nuclear extract after 15 mins by colorimetric assay. It counts as cell-based.

Molecules are shown by their SMILES.

Consider `O=C(CCCCC[Se][Se]CCCCCC(=O)Nc1ccccc1)Nc1ccccc1`, for which, in the test on HeLa, the Ratio IC50 is more than 20. The inhibition in test [1] is 81%.

On to `N#C[Se]CCCCCC(=O)Nc1ccccc1`, for which the IC50 against Histone deacetylase was 8.9 nM. For the same compound, the Ratio IC50 in the test on HeLa was 20. Also, the inhibition in test [1] is 95%.
